Each structure is given as a SMILES string. Where a name gives a salt, the structure may show the parent alone.

`CCOCc1nc2c(N)nc3ccccc3c2n1CC(C)(C)CS(=O)(=O)N(C)C` (as salt: hydrochloride) [Example 25, N,N-Dimethyl 3-(4-amino-2-ethoxymethyl-1H-imidazo[4,5-c]quinolin-1-yl)-2,2-dimethylpropane-1-sulfonamide] came in with a melting point of 193 to 195 °C.

The compound `CCc1nc2c(N)nc3ccccc3c2n1CCCCS(N)(=O)=O` (as salt: trifluoroacetate) [Example 6, 4-(4-Amino-2-ethyl-1H-imidazo[4,5-c]quinolin-1-yl)butane-1-sulfonamide] registered a melting point of 225 to 227 °C.

For the compound `CCc1nc2c(N)nc3ccccc3c2n1CCCS(=O)(=O)NC` [Example 1, N-Methyl 3-(4-amino-2-ethyl-1H-imidazo[4,5-c]quinolin-1-yl)propane-1-sulfonamide], the melting point lay within 225 to 228 °C.

Consider `CCc1nc2c(N)nc3ccccc3c2n1CCCS(=O)(=O)N(C)C` [Example 2, N,N-Dimethyl 3-(4-amino-2-ethyl-1H-imidazo[4,5-c]quinolin-1-yl)propane-1-sulfonamide], for which the melting point is 209 to 211 °C.

In the case of `CCc1nc2c(N)nc3ccccc3c2n1CCCCS(=O)(=O)N(C)C` [Example 3, N,N-Dimethyl 4-(4-amino-2-ethyl-1H-imidazo[4,5-c]quinolin-1-yl)butane-1-sulfonamide], the melting point lay in the range of 193 to 195 °C.

Compound `CCc1nc2c(N)nc3ccccc3c2n1CCCCS(=O)(=O)NC` [Example 4, N-Methyl 4-(4-amino-2-ethyl-1H-imidazo[4,5-c]quinolin-1-yl)butane-1-sulfonamide] registered a melting point of 190 to 191 °C.

As to `CCc1nc2c(N)nc3ccccc3c2n1CCCCS(=O)(=O)NCc1ccc(OC)cc1` [Example 5, N-(4-Methoxybenzyl) 4-(4-amino-2-ethyl-1H-imidazo[4,5-c]quinolin-1-yl)butane-1-sulfonamide], the melting point was 176 to 177 °C.

`CN(C)S(=O)(=O)CCCn1cnc2c(N)nc3ccccc3c21` [Example 7, N,N-Dimethyl 3-(4-amino-1H-imidazo[4,5-c]quinolin-1-yl)propane-1-sulfonamide] yielded a melting point of 155 to 157 °C.

The compound `CCOCc1nc2c(N)nc3ccccc3c2n1CCCCS(=O)(=O)Nc1ccc(OC)cc1` [Example 8, N-(4-Methoxyphenyl) 4-(4-amino-2-ethoxymethyl-1H-imidazo[4,5-c]quinolin-1-yl)butane-1-sulfonamide] returned a melting point of 229 to 230 °C.

In turn, `CCOCc1nc2c(N)nc3ccccc3c2n1CCCCS(=O)(=O)NC` [Example 10, N-Methyl 4-(4-amino-2-ethoxymethyl-1H-imidazo[4,5-c]quinolin-1-yl)butane-1-sulfonamide] registered a melting point of 170 to 172 °C.

With `CCOCc1nc2c(N)nc3ccccc3c2n1CCCCS(=O)(=O)N(C)C` [Example 11, N,N-Dimethyl 4-(4-amino-2-ethoxymethyl-1H-imidazo[4,5-c]quinolin-1-yl)butane-1-sulfonamide], the melting point lay within 173 to 174 °C.

Compound `CCOCc1nc2c(N)nc3ccccc3c2n1CCCCS(=O)(=O)N1CCCCC1` [Example 12, 2-Ethoxymethyl-1-[4-(piperidine-1-sulfonyl)butyl]-1H-imidazo[4,5-c]quinoline-4-amine] yielded a melting point of 185 to 188 °C.

`CCOCc1nc2c(N)nc3ccccc3c2n1CCCCS(=O)(=O)NC1CCCCC1` [Example 13, N-Cyclohexyl 4-(4-amino-2-ethoxymethyl-1H-imidazo[4,5-c]quinolin-1-yl)butane-1-sulfonamide] displayed a melting point of 197 to 198 °C.

In the case of `CCCCNS(=O)(=O)CCCCn1c(COCC)nc2c(N)nc3ccccc3c21` [Example 14, N-Butyl 4-(4-amino-2-ethoxymethyl-1H-imidazo[4,5-c]quinolin-1-yl)butane-1-sulfonamide], the melting point was 148 to 149 °C.

`CCOCc1nc2c(N)nc3ccccc3c2n1CCOCCCS(=O)(=O)N(C)C` [Example 15, N,N-Dimethyl 3-[2-(4-amino-2-ethoxymethyl-1H-imidazo[4,5-c]quinolin-1-yl)ethoxy]propane-1-sulfonamide] gave a melting point of 61 to 64 °C.

In turn, `CCOCc1nc2c(N)nc3ccccc3c2n1CCCCCS(=O)(=O)NC` [Example 16, N-Methyl 5-(4-amino-2-ethoxymethyl-1H-imidazo[4,5-c]quinolin-1-yl)pentane-1-sulfonamide] had a melting point of 175 to 179 °C.

For the compound `CCOCc1nc2c(N)nc3ccccc3c2n1CCCCCS(=O)(=O)N(C)C` [Example 17, N,N-Dimethyl 5-(4-amino-2-ethoxymethyl-1H-imidazo[4,5-c]quinolin-1-yl)pentane-1-sulfonamide], the melting point was in the range of 138 to 142 °C.

For the compound `CCOCc1nc2c(N)nc3c(c2n1CCCCS(=O)(=O)NC)CCCC3` [Example 18, N-Methyl 4-(4-amino-2-ethoxymethyl-6,7,8,9-tetrahydro-1H-imidazo[4,5-c]quinolin-1-yl)butane-1-sulfonamide], the melting point fell in the range of 188 to 192 °C.

In the case of `CCOCc1nc2c(N)nc3c(c2n1CCCCS(=O)(=O)N(C)C)CCCC3` [Example 19, N,N-Dimethyl 4-(4-amino-2-ethoxymethyl-6,7,8,9-tetrahydro-1H-imidazo[4,5-c]quinolin-1-yl)butane-1-sulfonamide], the melting point was 165 to 167 °C.

Consider `CCOCc1nc2c(N)nc3ccccc3c2n1CCCCS(=O)(=O)NCc1ccc(OC)cc1` [Example 20, N-(4-Methoxybenzyl) 4-(4-amino-2-ethoxymethyl-1H-imidazo[4,5-c]quinolin-1-yl)butane-1-sulfonamide], for which the melting point came to 101 °C.

For `CCOCc1nc2c(N)nc3ccccc3c2n1CCCCS(N)(=O)=O` [Example 21, 4-(4-Amino-2-ethoxymethyl-1H-imidazo[4,5-c]quinolin-1-yl)butane-1-sulfonamide], the melting point was in the range of 155 to 158 °C.

Consider `CCOCc1nc2c(N)nc3ccccc3c2n1CCCCCS(=O)(=O)NCc1ccc(OC)cc1` [Example 22, N-(4-Methoxybenzyl) 5-(4-amino-2-ethoxymethyl-1H-imidazo[4,5-c]quinolin-1-yl)pentane-1-sulfonamide], for which the melting point was 177 to 178 °C.

On to `CCOCc1nc2c(N)nc3ccccc3c2n1CCCCCS(N)(=O)=O` [Example 23, 5-(4-Amino-2-ethoxymethyl-1H-imidazo[4,5-c]quinolin-1-yl)pentane-1-sulfonamide], for which the melting point is 176 to 178 °C.

In the case of `CCOCc1nc2c(N)nc3c(c2n1CCCCS(N)(=O)=O)CCCC3` [Example 24, 4-(4-Amino-2-ethoxymethyl-6,7,8,9-tetrahydro-1H-imidazo[4,5-c]quinolin-1-yl)butane-1-sulfonamide], the melting point is 224 to 227 °C.

For `CCCc1nc2c(N)nc(C)c(C)c2n1CCCCS(=O)(=O)N(C)C` [Example 26, N,N-Dimethyl 4-(4-Amino-6,7-dimethyl-2-propyl-1H-imidazo[4,5-c]pyridin-1-yl)butane-1-sulfonamide], the melting point is 127 to 128 °C.

Compound `CCCc1nc2c(N)nc(C)c(C)c2n1CCCCS(=O)(=O)NC` [Example 27, N-Methyl 4-(4-Amino-6,7-dimethyl-2-propyl-1H-imidazo[4,5-c]pyridin-1-yl)butane-1-sulfonamide] displayed a melting point of 164 to 166 °C.

Compound `CCOCc1nc2c(N)nc(C)c(C)c2n1CCCCS(=O)(=O)N(C)C` [Example 28, N,N-Dimethyl 4-(4-Amino-6,7-dimethyl-2-ethoxymethyl-1H-imidazo[4,5-c]pyridin-1-yl)butane-1-sulfonamide] had a melting point of 158 to 160 °C.

For the compound `CCOCc1nc2c(N)nc3cccnc3c2n1CCCCS(=O)(=O)N(C)C` [Example 29, N,N-Dimethyl 4-(4-Amino-2-ethoxymethyl-1H-imidazo[4,5-c][1,5]naphthyridin-1-yl)butane-1-sulfonamide], the melting point fell in the range of 148 to 150 °C.

`CCCc1nc2c(N)nc3cccnc3c2n1CCCCS(=O)(=O)N(C)C` [Example 30, N,N-Dimethyl 4-(4-Amino-2-propyl-1H-imidazo[4,5-c][1,5]naphthyridin-1-yl)butane-1-sulfonamide]: the melting point lay in the range of 162 to 163 °C.

`CCCc1nc2c(N)nc(C)c(C)c2n1CCCCS(N)(=O)=O` [Example 31, 4-(4-Amino-6,7-dimethyl-2-propyl-1H-imidazo[4,5-c]pyridin-1-yl)butane-1-sulfonamide]: the melting point was 167 to 169 °C.

Take `CCOCc1nc2c(N)nc3cccnc3c2n1CCCCS(=O)(=O)NC` [Example 32, N-Methyl 4-(4-Amino-2-ethoxymethyl-1H-imidazo[4,5-c][1,5]naphthyridin-1-yl)butane-1-sulfonamide]: the melting point lay in the range of 148 to 150 °C.

`CCCc1nc2c(N)nc3cccnc3c2n1CCCCS(=O)(=O)NC` [Example 33, N-Methyl 4-(4-Amino-2-propyl-1H-imidazo[4,5-c][1,5]naphthyridin-1-yl)butane-1-sulfonamide] had a melting point of 174 to 175 °C.

Take `CCOCc1nc2c(N)nc(C)c(C)c2n1CCCCS(=O)(=O)NC` [Example 34, N-Methyl 4-(4-Amino-6,7-dimethyl-2-ethoxymethyl-1H-imidazo[4,5-c]pyridin-1-yl) butane-1-sulfonamide]: the melting point fell in the range of 194.5 to 196 °C.

`CCOCc1nc2c(N)nc(C)c(C)c2n1CCCCS(N)(=O)=O` [Example 35, 4-(4-Amino-2-ethoxymethyl-6,7-dimethyl-1H-imidazo[4,5-c]pyridin-1-yl)butane-1-sulfonamide] yielded a melting point of 200 to 201.5 °C.

The compound `CCOCc1nc2c(N)nc3ccccc3c2n1CC(C)(C)CS(=O)(=O)NC` [Example 36, 3-[4-Amino-2-(ethoxymethyl)-1H-imidazo[4,5-c]quinolin-1-yl]-N,2,2-trimethylpropane-1-sulfonamide] came in with a melting point of 161 to 163 °C.

As to `CCOCc1nc2c(N)nc3ccccc3c2n1CCCCS(=O)(=O)NC(C)C` [Example 37, 4-[4-Amino-2-(ethoxymethyl)-1H-imidazo[4,5-c]quinolin-1-yl]-N-isopropylbutane-1-sulfonamide], the melting point is 146 to 147 °C.

In turn, `CCOCc1nc2c(N)nc3c(c2n1CCCCCS(N)(=O)=O)CCCC3` [Example 38, 5-[4-amino-2-(ethoxymethyl)-6,7,8,9-tetrahydro-1H-imidazo[4,5-c]quinolin-1-yl]pentane-1-sulfonamide] registered a melting point of 203 to 205 °C.

One may read the melting point as the temperature of the solid-liquid transition.

These data come from US8735421B2, “Imidazoquinolinyl sulfonamides” (3M Innovative Properties Company, priority 2003, dated 2014).
